Activity calls are given as the source filed them. The calls are words filed in the database; no cut-off is given here.
target: T1, Prostaglandin G/H synthase 2 (Mus musculus, UniProt Q05769); experiment: Inhibition of COX-2 mediated PGE2 production in LPS-induced mouse RAW264.7 cells; format: cell-based
T1 sequence (Q05769 whole entry): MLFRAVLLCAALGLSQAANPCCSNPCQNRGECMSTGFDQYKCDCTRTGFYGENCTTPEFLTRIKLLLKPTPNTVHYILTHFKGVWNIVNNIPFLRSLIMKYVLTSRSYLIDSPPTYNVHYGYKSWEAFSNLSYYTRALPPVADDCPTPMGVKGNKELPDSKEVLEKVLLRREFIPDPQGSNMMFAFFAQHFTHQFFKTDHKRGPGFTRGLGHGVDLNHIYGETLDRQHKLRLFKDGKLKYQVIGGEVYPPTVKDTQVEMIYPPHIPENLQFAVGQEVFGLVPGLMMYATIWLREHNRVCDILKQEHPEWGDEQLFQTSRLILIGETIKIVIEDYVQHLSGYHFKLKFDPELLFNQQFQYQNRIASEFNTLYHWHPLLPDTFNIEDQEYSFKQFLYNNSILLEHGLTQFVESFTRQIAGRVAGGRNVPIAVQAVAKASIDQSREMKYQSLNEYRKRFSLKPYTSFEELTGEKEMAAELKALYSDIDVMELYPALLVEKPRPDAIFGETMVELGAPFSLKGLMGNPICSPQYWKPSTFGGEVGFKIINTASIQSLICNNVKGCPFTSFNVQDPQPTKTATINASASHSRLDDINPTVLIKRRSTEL

Row | SMILES | IC50 [nM]
1 | CS(=O)(=O)c1ccc(/C=C/c2ccco2)cc1 | 1180
2 | NS(=O)(=O)c1ccc(/C=C/c2ccsc2)cc1 | 440
3 | CS(=O)(=O)c1ccc(/C=C/c2ccoc2)cc1 | > 50000
4 | NS(=O)(=O)c1ccc(/C=C/c2ccco2)cc1 | 18300
5 | CS(=O)(=O)c1ccc(/C=C/c2ccsc2)cc1 | 520
6 | NS(=O)(=O)c1ccc(/C=C/c2ccoc2)cc1 | > 50000
7 | CS(=O)(=O)c1ccc(/C=C/c2cccs2)cc1 | 380
8 | NS(=O)(=O)c1ccc(/C=C/c2cccs2)cc1 | 13

system: RAW264.7; experiment: Inhibition of COX-2 gene expression in LPS-stimulated mouse RAW264.7 cells after 24 hrs by RT-PCR analysis; format: functional, cell-based

Row | SMILES | inhibition
9 | NS(=O)(=O)c1ccc(/C=C/c2cccs2)cc1 | Active
